Like-named read-outs stand apart in the source and are kept apart here.
Legend:
normal subjects = conditions: ingestion; cited from earlier work
healthy human volunteers = healthy human volunteers treated with carbenoxolone; cited from earlier work
bone nodule formation = conditions: cited from earlier work
human 11b-hsd-1 = human 11b-hsd-1 (Homo sapiens, UniProt P28845); test: Inhibition constant Ki of human 11b-hsd-1 (3H-cortisone to 3H-cortisol conversion, HPLC); type: biochemical; conditions: for Ki: apparent Ki, read-out: Ki app
Sequence of human 11b-hsd-1 (P28845 whole entry): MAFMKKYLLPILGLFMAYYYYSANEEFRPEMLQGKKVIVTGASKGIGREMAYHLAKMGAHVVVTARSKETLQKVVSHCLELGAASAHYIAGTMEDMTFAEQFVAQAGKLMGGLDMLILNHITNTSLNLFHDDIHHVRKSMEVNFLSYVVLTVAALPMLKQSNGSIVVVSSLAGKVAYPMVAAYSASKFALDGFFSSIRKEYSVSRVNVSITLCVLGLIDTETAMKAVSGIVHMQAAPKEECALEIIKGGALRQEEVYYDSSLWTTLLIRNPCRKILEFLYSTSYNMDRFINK

CC1(C)[C@@H](OC(=O)CCC(=O)O)CC[C@]2(C)[C@H]3C(=O)C=C4[C@@H]5C[C@@](C)(C(=O)O)CC[C@]5(C)CC[C@@]4(C)[C@]3(C)CC[C@@H]12 [carbenoxolone]
reduction of the intraocular pressure (normal subjects): 20% | hepatic insulin sensitivity (healthy human volunteers): improved | negative effect of glucocorticoid on bone nodule formation (bone nodule formation): blocked

CN(C(=O)[C@H]1COCCN1CC1CCCCC1)C1CCCCC1 [Example 11, (3R)-N-cyclohexyl-4-(cyclohexylmethyl)-N-methylmorpholine-3-carboxamide]
Ki (human 11b-hsd-1; human 11b-hsd-1): 38.3 nM | inhibition at 0.1 µM (human 11b-hsd-1; compound at 0.1 μM): 80%

O=C(NCc1ccccc1F)[C@H]1CCCN1CCC(F)(F)F [Example 229]
inhibition at 0.1 µM (human 11b-hsd-1; 0.1 μM compound): 73.7% | Ki (human 11b-hsd-1): 48 nM

CC(C)(C)OC(=O)N1CCC(CN2CCC[C@@H]2C(=O)NC2C3CC4CC(C3)CC2C4)C1 (some centres unmarked) [Example 114]
inhibition at 0.1 µM (human 11b-hsd-1; compound at 0.1 μM): 100%

CCC1CCCCN1C(=O)[C@H]1CSCN1CC(C)C (some centres unmarked) [Example 200]
inhibition at 0.1 µM (human 11b-hsd-1; 0.1 μM compound): 91.6% | Ki (human 11b-hsd-1): 36 nM

CN1CCC[C@@H]1C(=O)NC12CC3CC(CC(C3)C1)C2 [Example 20]
Ki (human 11b-hsd-1; human 11b-hsd-1): 23.3 nM | inhibition at 0.1 µM (human 11b-hsd-1; compound at 0.1 μM): 72%

O=C(NC1C2CC3CC(C2)CC1C3)[C@H]1COCCN1Cc1ccccn1 (some centres unmarked) [Example 67]
Ki (human 11b-hsd-1; human 11b-hsd-1): 1 nM | inhibition at 0.1 µM (human 11b-hsd-1; compound at 0.1 μM): 100%

CCOc1ccccc1O[C@@H]1CN[C@H](C(=O)NC2C3CC4CC(C3)CC2C4)C1 (some centres unmarked) [Example 361]
inhibition at 0.1 µM (human 11b-hsd-1; 0.1 μM compound): 100% | Ki (human 11b-hsd-1): 1.9 nM

CCCN1CCC[C@@H]1C(=O)NCc1ccccc1 [Example 217]
inhibition at 0.1 µM (human 11b-hsd-1; 0.1 μM compound): 84.6% | Ki (human 11b-hsd-1): 171 nM

CC(C)CN1CCC[C@@H]1C(=O)N[C@@H]1CCc2ccccc21 [Example 291]
inhibition at 0.1 µM (human 11b-hsd-1; 0.1 μM compound): 100% | Ki (human 11b-hsd-1): 1 nM

CC(C)CN1CCC[C@@H]1C(=O)NC(C)c1ccc(F)cc1 (some centres unmarked) [Example 290]
inhibition at 0.1 µM (human 11b-hsd-1; 0.1 μM compound): 96.2% | Ki (human 11b-hsd-1): 6.85 nM

CNCCN1CCC[C@@H]1C(=O)NC1C2CC3CC(C2)CC1C3 (some centres unmarked) [Example 111]
inhibition at 0.1 µM (human 11b-hsd-1; compound at 0.1 μM): 96%

O=C(NC1C2CC3CC(C2)CC1C3)[C@@H]1C[C@H](Oc2ccc(Cl)cc2)CN1 (some centres unmarked) [Example 339]
inhibition at 0.1 µM (human 11b-hsd-1; 0.1 μM compound): 97.7% | Ki (human 11b-hsd-1): 1 nM

CC(C)CN1CCC[C@@H]1C(=O)NCC1(O)CCCC1 [Example 330]
inhibition at 0.1 µM (human 11b-hsd-1; 0.1 μM compound): 83.5% | Ki (human 11b-hsd-1): 30 nM

CCOCCN1CCC[C@@H]1C(=O)NC1CCCCC1 [Example 95]
Ki (human 11b-hsd-1; human 11b-hsd-1): 39 nM | inhibition at 0.1 µM (human 11b-hsd-1; compound at 0.1 μM): 78%

Cc1cc(O[C@@H]2CN[C@H](C(=O)NC3C4CC5CC(C4)CC3C5)C2)ccc1F (some centres unmarked) [Example 351]
inhibition at 0.1 µM (human 11b-hsd-1; 0.1 μM compound): 100% | Ki (human 11b-hsd-1): 1 nM

O=C(NC1C2CC3CC(C2)CC1C3)[C@H]1CCCN1C[C@@H]1CCCN1 (some centres unmarked) [Example 141]
inhibition at 0.1 µM (human 11b-hsd-1; compound at 0.1 μM): 76%

CN(CCN1CCC[C@@H]1C(=O)NC1C2CC3CC(C2)CC1C3)Cc1ccccc1 (some centres unmarked) [Example 110, 1-[2-(Benzyl-methyl-amino)ethyl]-pyrrolidine-2-carboxylic acid adamantan-2-ylamide]
inhibition at 0.1 µM (human 11b-hsd-1; compound at 0.1 μM): 100%

O=C(NC1CCCCC1)[C@H]1CCCN1C1CCC1 [Example 103]
Ki (human 11b-hsd-1; human 11b-hsd-1): 14 nM | inhibition at 0.1 µM (human 11b-hsd-1; compound at 0.1 μM): 83%

O=C(NC12CC3CC(CC(C3)C1)C2)C1COCCN1CCC1CCOCC1 (centres unmarked) [Example 185]
Ki (human 11b-hsd-1; human 11b-hsd-1): 14 nM | inhibition at 0.1 µM (human 11b-hsd-1; compound at 0.1 μM): 91.3%

CC(C)CN1CCOC[C@@H]1C(=O)NCC1CCCCC1 [Example 336]
inhibition at 0.1 µM (human 11b-hsd-1; 0.1 μM compound): 100% | Ki (human 11b-hsd-1): 1 nM

CC(C)CN1C[C@H](O)C[C@@H]1C(=O)NC1C2CC3CC(C2)CC1C3 (some centres unmarked) [Example 25]
Ki (human 11b-hsd-1; human 11b-hsd-1): 1.7 nM | inhibition at 0.1 µM (human 11b-hsd-1; compound at 0.1 μM): 100%

C[C@H](O)CN1CCC[C@@H]1C(=O)NC1C2CC3CC(C2)CC1C3 (some centres unmarked) [Example 117]
inhibition at 0.1 µM (human 11b-hsd-1; compound at 0.1 μM): 100%

CN(C(=O)[C@H]1COCCN1CC1CCOCC1)C1CCCCC1 [Example 49]
inhibition at 0.1 µM (human 11b-hsd-1; compound at 0.1 μM): 64%

NC(=O)CN1CCC[C@@H]1C(=O)NC1C2CC3CC(C2)CC1C3 (some centres unmarked) [Example 19]
Ki (human 11b-hsd-1; human 11b-hsd-1): 17 nM | inhibition at 0.1 µM (human 11b-hsd-1; compound at 0.1 μM): 86%

O=C(NC1C2CC3CC(C2)CC1C3)[C@@H]1C[C@H](Oc2cccc(F)c2)CN1 (some centres unmarked) [Example 319]
inhibition at 0.1 µM (human 11b-hsd-1; 0.1 μM compound): 100% | Ki (human 11b-hsd-1): 1.7 nM

O=C(NCc1ccc(F)cc1F)[C@H]1CCCN1Cc1ccc(Cl)cc1 [Example 243]
inhibition at 0.1 µM (human 11b-hsd-1; 0.1 μM compound): 84.9% | Ki (human 11b-hsd-1): 15 nM

CC(C)CN1CCOC[C@@H]1C(=O)NC1C2CC3CC(C2)CC1C3 (some centres unmarked) [Example 64]
Ki (human 11b-hsd-1; human 11b-hsd-1): 1.3 nM | inhibition at 0.1 µM (human 11b-hsd-1; compound at 0.1 μM): 100%

CC(C)N1CCC(CN2CCOC[C@@H]2C(=O)NC2C3CC4CC(C3)CC2C4)CC1 (some centres unmarked) [Example 73]
inhibition at 0.1 µM (human 11b-hsd-1; compound at 0.1 μM): 83%

COC(C)(C)CN1CCC[C@@H]1C(=O)NC1C2CC3CC(C2)CC1C3 (some centres unmarked) [Example 120]
inhibition at 0.1 µM (human 11b-hsd-1; compound at 0.1 μM): 100%

C[C@@H](NC(=O)[C@H]1COCCN1Cc1ccccc1)c1ccc(Cl)cc1 [Example 314]
inhibition at 0.1 µM (human 11b-hsd-1; 0.1 μM compound): 94.8% | Ki (human 11b-hsd-1): 8.96 nM

CC(C)CN1CCOC[C@@H]1C(=O)NCc1ccccc1F [Example 57]
Ki (human 11b-hsd-1; human 11b-hsd-1): 23.4 nM | inhibition at 0.1 µM (human 11b-hsd-1; compound at 0.1 μM): 81%

O=C(NC12CC3CC(CC(C3)C1)C2)[C@H]1CCCN1Cc1ccccn1 [Example 250]
inhibition at 0.1 µM (human 11b-hsd-1; 0.1 μM compound): 100% | Ki (human 11b-hsd-1): 5.9 nM

O=C(NC12CC3CC(CC(C3)C1)C2)[C@H]1CCCN1CC1CCCCC1 [Example 9, N-1-adamantyl-1-(cyclohexylmethyl)-D-prolinamide]
Ki (human 11b-hsd-1; human 11b-hsd-1): 1.7 nM | inhibition at 0.1 µM (human 11b-hsd-1; compound at 0.1 μM): 100%

CCC1CCCCN1C(=O)[C@H]1CSCN1Cc1ccc(Cl)cc1 (some centres unmarked) [Example 198]
inhibition at 0.1 µM (human 11b-hsd-1; 0.1 μM compound): 100% | Ki (human 11b-hsd-1): 2.5 nM

CC(C)CN1C[C@H](O)C[C@@H]1C(=O)NC1CCCCC1 [Example 29]
Ki (human 11b-hsd-1; human 11b-hsd-1): 39.2 nM | inhibition at 0.1 µM (human 11b-hsd-1; compound at 0.1 μM): 69%

CCCN1CCC[C@@H]1C(=O)NC1CCCCCC1 [Example 93]
Ki (human 11b-hsd-1; human 11b-hsd-1): 2 nM | inhibition at 0.1 µM (human 11b-hsd-1; compound at 0.1 μM): 100%

CCC(C)N1CCC[C@@H]1C(=O)NC1CCCCC1 (some centres unmarked) [Example 105]
Ki (human 11b-hsd-1; human 11b-hsd-1): 15 nM | inhibition at 0.1 µM (human 11b-hsd-1; compound at 0.1 μM): 82%

O=C(NCc1ccccc1Cl)[C@H]1CCCN1Cc1ccccc1 [Example 247]
inhibition at 0.1 µM (human 11b-hsd-1; 0.1 μM compound): 88% | Ki (human 11b-hsd-1): 14 nM

CC(C)CN1CCC[C@@H]1C(=O)N[C@H](C)c1ccccc1 [Example 287]
inhibition at 0.1 µM (human 11b-hsd-1; 0.1 μM compound): 98.7% | Ki (human 11b-hsd-1): 3.39 nM

CC(C)CN1CCC[C@@H]1C(=O)NC1CCC(F)(F)CC1 [Example 136]
inhibition at 0.1 µM (human 11b-hsd-1; compound at 0.1 μM): 100%

N#Cc1ccc(CN2CCOC[C@@H]2C(=O)NC2C3CC4CC(C3)CC2C4)cc1 (some centres unmarked) [Example 62]
Ki (human 11b-hsd-1; human 11b-hsd-1): 1.1 nM | inhibition at 0.1 µM (human 11b-hsd-1; compound at 0.1 μM): 100%

CC(C)CN1CCC[C@@H]1C(=O)NCc1ccccc1Cl [Example 257]
inhibition at 0.1 µM (human 11b-hsd-1; 0.1 μM compound): 100% | Ki (human 11b-hsd-1): 2.1 nM

CC(=O)N1CCC[C@@H]1C(=O)NC1C2CC3CC(C2)CC1C3 (stereo partly drawn) [Example 18, N-2-adamantyl-1-acetyl-D-prolinamide]
Ki (human 11b-hsd-1; human 11b-hsd-1): 16.4 nM | inhibition at 0.1 µM (human 11b-hsd-1; compound at 0.1 μM): 85%

Reference: patent US20050261290A1, “Novel compounds of proline and morpholine derivatives” (priority 2004, published 2005)
